Assay results: patent US11813261B2, “HDAC inhibitors, alone or in combination with BTK inhibitors, for treating chronic lymphocytic leukemia” (ACETYLON PHARMACEUTICALS, INC., priority 2016, dated 2023)
Entries after “also recorded” stand apart in the source; their conditions may differ.

Legend:
Mec1 cells = experiment: IL-10 production by Mec1 cells stimulated with LPS; type: cell-based; conditions: Mec1 cells treated 24 hours
[1] = clinical trials, myeloma and lymphoma; cited from earlier work
[2] = test system: C57BL/6 mice adoptively transferred with euTCL1 splenocytes; type: in vivo; conditions: for expression of PD-1 and LAG-3: adoptive transfer, Compound D feed, Compound A injection, 10 weeks post adoptive transfer
Experimental: (§1) Flow cytometric analysis of peripheral blood mononuclear cells (PBMCs) was performed using fluorochrome-labeled monoclonal antibodies and the vitality dye 4′,6-diamidino-2-phenylindole. Data was acquired on an LSRII cytometer (Becton, Dickinson and Company; Franklin Lakes, NJ), and analyzed with FlowJo software (FlowJo; Ashland, Oreg). Absolute cell numbers calculated using AccuCheck Counting beads (ThermoFisher Scientific; Waltham, MA).
(§2) All animal studies involving euTCL1 and its cross with HDAC6KO were performed following established protocols that followed approved Institutional Animal Care and Use Committee (IACUC) procedures. Two mouse models of CLL were used: an Aging CLL model, and an Accelerated CLL Model.
Day 0 • Adoptive transfer of 5×10^6 euTCL1 or euTCL1/1-IDAC6KO splenocytes
Week 3-5 • Flow cytometry analysis • For analysis of disease
Week 9 • Flow cytometry analysis • For analysis of disease
Week 12 • Flow cytometry analysis • For analysis of disease • Observe for survival
Flow cytometry analysis and gating: B-cells (malignant population CD19+/CD5+/CD45R (B220)+/IgM+/Igk+; for normal B-cells CD19+/CD5−/CD45R (B220)+/IgM+/Igk−T-regs were identified as CD3+/CD4+/CD25 hi/IL-7R low. For Co-inhibitory molecule expression CD223 (LAG3), CD279 (PD-1), CD274 (PDL-1), and CD273 (PDL-2).

euTCL1 (CLL model mouse) = experiment: Aging CLL model; type: in vivo
Experimental: as §1, §2
Birth • euTCL1 (CLL model mouse) and • euTCL1/HDAC6KO transgenic mice
5-7 Months • Flow cytometry analysis • For analysis of disease
9 Months • Flow cytometry analysis • For analysis of disease
12 Months • Flow cytometry analysis • For analysis of disease • Observe for survival B) Accelerated CLL Model

CLL = conditions: cited from earlier work

In the case of `O=C(CCCCCCNC(=O)c1cnc(N(c2ccccc2)c2ccccc2)nc1)NO` [Compound A, 2-(diphenylamino)-N-(7-(hydroxyamino)-7-oxoheptyl)pyrimidine-5-carboxamide], the IL-10 production (Mec1 cells) is given as “dose-dependent decrease”, the tolerability [1] is given as “well-tolerated” and the “expression of PD-1 and LAG-3” value [2] is given as “lower expression; also recorded: reduced”.
With `O=C(NO)c1cnc(NC2(c3ccccc3)CC2)nc1` [Compound D, N-hydroxy-2-((1-phenylcyclopropyl)amino)pyrimidine-5-carboxamide] the disease burden (euTCL1 (CLL model mouse); 9 months old/25 weeks post treatment start date, vs mice treated without Compound D) was “significantly lower disease burden”, the “expression of PD-1 and LAG-3 on T-regs” value (euTCL1 (CLL model mouse); feed daily, flow cytometry, vs mice not treated) was “lower PD-1 and LAG-3 expression; also recorded: reduced” and the overall survival (euTCL1 (CLL model mouse); vs mice not treated) was “more advantageous overall survival”. For the same molecule, the “expression of PD-L1 on B cells” value ([2]; B cells isolated from treated mice vs non-treated animals) was “decrease”, the disease burden ([2]; adoptive transfer model) was “significantly lower disease burden” and the overall survival ([2]; adoptive transfer model) was “more advantageous overall survival”. The “expression of PD-1 and LAG-3” value [2] was “lower expression; also recorded: reduced” and the “PD-1 and LAG3 on CD4+ T-cells” value ([2]; treatment in chow, week 10 post-adoptive transfer, flow cytometry) was “normalization”.
For `Nc1ccccc1NC(=O)c1ccc(CNc2nccc(-c3cccnc3)n2)cc1` [MGCD0103], the “antileukemic activity in CLL” value (CLL) is listed as “induced antileukemic activity”.
In the case of `CCCC(CCC)C(=O)O` [valproic acid], the “antileukemic activity in CLL” value (CLL) is given as “induced antileukemic activity”.
